From the NIST ThermoML archive (doi:10.1021/je200668a)
“And” between values parts separate entries of the source, which are not always exact repeats. Equal values may be shown once. ± gives the expanded uncertainty stated by the source.

Conditions: Liquid, Pulse Transmission

## O [water]
252.47 K, 215100 kPa
  speed of sound: 1715.3 ± 2.8 m/s
252.47 K, 220000 kPa
  speed of sound: 1725.1 ± 2.8 m/s
252.5 K, 205200 kPa
  speed of sound: 1695.9 ± 2.7 m/s
252.5 K, 209900 kPa
  speed of sound: 1705.2 ± 2.8 m/s
252.5 K, 215300 kPa
  speed of sound: 1716.8 ± 2.8 m/s
252.5 K, 240000 kPa
  speed of sound: 1764.3 ± 2.8 m/s
252.51 K, 220200 kPa
  speed of sound: 1726.7 ± 2.8 m/s
252.51 K, 235100 kPa
  speed of sound: 1754.9 ± 2.9 m/s
252.51 K, 245400 kPa
  speed of sound: 1774.8 ± 2.8 m/s
252.52 K, 210100 kPa
  speed of sound: 1705.8 ± 2.8 m/s and 1706 ± 2.8 m/s
252.52 K, 244900 kPa
  speed of sound: 1773.9 ± 2.8 m/s
252.53 K, 200100 kPa
  speed of sound: 1685.4 ± 2.7 m/s
252.53 K, 204800 kPa
  speed of sound: 1695.3 ± 2.7 m/s
252.53 K, 215300 kPa
  speed of sound: 1716.3 ± 2.8 m/s
252.53 K, 225100 kPa
  speed of sound: 1735.1 ± 2.8 m/s
252.53 K, 230000 kPa
  speed of sound: 1745 ± 2.8 m/s and 1745.4 ± 2.8 m/s
252.53 K, 240100 kPa
  speed of sound: 1764.5 ± 2.8 m/s
252.54 K, 235200 kPa
  speed of sound: 1755.1 ± 2.9 m/s
252.54 K, 239200 kPa
  speed of sound: 1762.7 ± 2.8 m/s
252.54 K, 245000 kPa
  speed of sound: 1774.1 ± 2.8 m/s
252.55 K, 225000 kPa
  speed of sound: 1736.1 ± 2.8 m/s
252.56 K, 204900 kPa
  speed of sound: 1695.4 ± 2.7 m/s
252.57 K, 198900 kPa
  speed of sound: 1683.1 ± 2.7 m/s
252.57 K, 199400 kPa
  speed of sound: 1684.1 ± 2.7 m/s
252.57 K, 229900 kPa
  speed of sound: 1744.6 ± 2.8 m/s
252.57 K, 235200 kPa
  speed of sound: 1754.8 ± 2.9 m/s
252.59 K, 225100 kPa
  speed of sound: 1735.8 ± 2.8 m/s
252.61 K, 220300 kPa
  speed of sound: 1726.3 ± 2.8 m/s
257.59 K, 225300 kPa
  speed of sound: 1755 ± 2.7 m/s
257.6 K, 175100 kPa
  speed of sound: 1654.5 ± 2.6 m/s
257.61 K, 199500 kPa
  speed of sound: 1703.9 ± 2.7 m/s
257.61 K, 275200 kPa
  speed of sound: 1847.7 ± 2.6 m/s
257.62 K, 274400 kPa
  speed of sound: 1845.4 ± 2.9 m/s
257.64 K, 250200 kPa
  speed of sound: 1801.3 ± 2.6 m/s
257.65 K, 224100 kPa
  speed of sound: 1752.6 ± 2.8 m/s
257.65 K, 276100 kPa
  speed of sound: 1848.6 ± 2.9 m/s
257.66 K, 199900 kPa
  speed of sound: 1705.5 ± 2.6 m/s
257.66 K, 299900 kPa
  speed of sound: 1889.6 ± 3 m/s
257.67 K, 249400 kPa
  speed of sound: 1799.8 ± 2.8 m/s
257.67 K, 299700 kPa
  speed of sound: 1889.4 ± 3 m/s
257.67 K, 300200 kPa
  speed of sound: 1890.9 ± 2.6 m/s
257.67 K, 374600 kPa
  speed of sound: 2011.2 ± 3.3 m/s
257.68 K, 325400 kPa
  speed of sound: 1932.5 ± 3.1 m/s
257.68 K, 375300 kPa
  speed of sound: 2012.5 ± 3.3 m/s
257.69 K, 176400 kPa
  speed of sound: 1657.4 ± 2.6 m/s
257.69 K, 199600 kPa
  speed of sound: 1704.5 ± 2.7 m/s
257.69 K, 249500 kPa
  speed of sound: 1800.5 ± 2.8 m/s
257.69 K, 349300 kPa
  speed of sound: 1972.1 ± 3.2 m/s
257.69 K, 350000 kPa
  speed of sound: 1972.9 ± 3.2 m/s
257.7 K, 176200 kPa
  speed of sound: 1657.4 ± 2.6 m/s
257.7 K, 224600 kPa
  speed of sound: 1754 ± 2.8 m/s
257.7 K, 325000 kPa
  speed of sound: 1928.5 ± 2.6 m/s
257.7 K, 325400 kPa
  speed of sound: 1932.5 ± 3.1 m/s
262.63 K, 299800 kPa
  speed of sound: 1906 ± 3 m/s
262.65 K, 224800 kPa
  speed of sound: 1771.8 ± 2.7 m/s
262.68 K, 250600 kPa
  speed of sound: 1820.4 ± 2.9 m/s
262.71 K, 324500 kPa
  speed of sound: 1944.4 ± 3.1 m/s
262.71 K, 349400 kPa
  speed of sound: 1982.7 ± 3.2 m/s
262.71 K, 399900 kPa
  speed of sound: 2060 ± 3.3 m/s
262.72 K, 274600 kPa
  speed of sound: 1861.2 ± 2.9 m/s
262.72 K, 374300 kPa
  speed of sound: 2023.2 ± 3.2 m/s
262.72 K, 424300 kPa
  speed of sound: 2095.3 ± 3.4 m/s
262.73 K, 249700 kPa
  speed of sound: 1816.5 ± 2.8 m/s
262.73 K, 299400 kPa
  speed of sound: 1903.1 ± 3 m/s
262.73 K, 324600 kPa
  speed of sound: 1945.1 ± 3.1 m/s
262.73 K, 349600 kPa
  speed of sound: 1984.2 ± 3.2 m/s
262.74 K, 124100 kPa
  speed of sound: 1574.1 ± 2.5 m/s
262.74 K, 199800 kPa
  speed of sound: 1725.4 ± 2.8 m/s
262.74 K, 299600 kPa
  speed of sound: 1903.2 ± 3 m/s
262.74 K, 425600 kPa
  speed of sound: 2097.8 ± 3.4 m/s
262.74 K, 449400 kPa
  speed of sound: 2130.8 ± 3.5 m/s
262.74 K, 450500 kPa
  speed of sound: 2133 ± 3.5 m/s
262.75 K, 274500 kPa
  speed of sound: 1860.6 ± 2.9 m/s
262.76 K, 148400 kPa
  speed of sound: 1623.4 ± 2.6 m/s
262.76 K, 150700 kPa
  speed of sound: 1629.8 ± 2.6 m/s
262.76 K, 199800 kPa
  speed of sound: 1724.8 ± 2.8 m/s
262.76 K, 224600 kPa
  speed of sound: 1772.3 ± 2.7 m/s
262.76 K, 251000 kPa
  speed of sound: 1819.5 ± 2.8 m/s
262.76 K, 350600 kPa
  speed of sound: 1986.4 ± 3.2 m/s
262.76 K, 375100 kPa
  speed of sound: 2023 ± 3.2 m/s
262.76 K, 399300 kPa
  speed of sound: 2058.1 ± 3.3 m/s
262.77 K, 126300 kPa
  speed of sound: 1578.6 ± 2.4 m/s
262.77 K, 174800 kPa
  speed of sound: 1677.2 ± 2.6 m/s and 1676.9 ± 2.6 m/s
262.78 K, 399700 kPa
  speed of sound: 2061.2 ± 3.3 m/s
262.81 K, 149800 kPa
  speed of sound: 1626.1 ± 2.6 m/s
262.81 K, 200800 kPa
  speed of sound: 1728.7 ± 2.8 m/s
267.77 K, 199500 kPa
  speed of sound: 1744.1 ± 2.6 m/s
267.78 K, 100800 kPa
  speed of sound: 1554.9 ± 2.3 m/s
267.78 K, 300400 kPa
  speed of sound: 1918.4 ± 3 m/s
267.78 K, 349700 kPa
  speed of sound: 1997.2 ± 3.2 m/s
267.79 K, 149600 kPa
  speed of sound: 1649.8 ± 2.6 m/s and 1648.8 ± 2.6 m/s
267.79 K, 399600 kPa
  speed of sound: 2070.9 ± 3.2 m/s
267.79 K, 500400 kPa
  speed of sound: 2208.8 ± 3.5 m/s
267.8 K, 249400 kPa
  speed of sound: 1833.6 ± 2.9 m/s
267.8 K, 449300 kPa
  speed of sound: 2141.5 ± 3.5 m/s
267.81 K, 98500 kPa
  speed of sound: 1551.2 ± 2.3 m/s
267.82 K, 400000 kPa
  speed of sound: 2071.6 ± 3.2 m/s
267.84 K, 100500 kPa
  speed of sound: 1554.9 ± 2.3 m/s
267.84 K, 199500 kPa
  speed of sound: 1744.6 ± 2.6 m/s
267.84 K, 450700 kPa
  speed of sound: 2144.1 ± 3.4 m/s
267.84 K, 500100 kPa
  speed of sound: 2209.7 ± 3.5 m/s
267.85 K, 299400 kPa
  speed of sound: 1918.6 ± 3 m/s
267.86 K, 399700 kPa
  speed of sound: 2071.2 ± 3.2 m/s
267.87 K, 249600 kPa
  speed of sound: 1835 ± 2.9 m/s
267.87 K, 251100 kPa
  speed of sound: 1837.5 ± 2.9 m/s
267.87 K, 349700 kPa
  speed of sound: 1997.5 ± 3.2 m/s
267.87 K, 449200 kPa
  speed of sound: 2142.4 ± 3.5 m/s
267.88 K, 150800 kPa
  speed of sound: 1652.5 ± 2.5 m/s
267.88 K, 299600 kPa
  speed of sound: 1919.3 ± 3 m/s
